The text below walks through data of US20050004016A1, “Method of obtaining peptides with tissue-specific activity and pharmaceutical compositions on their basis” (priority 2000, published 2005).

Residues, ends and D or L forms follow the SMILES beside them.

Data set [1] has as its system brain subcortical structure explants. Kind of data set: Growth of brain subcortical structure explants (square index, organotypic culture). The data set is classed as cell-based, chicken embryos. The conditions noted are these: 100 ng/ml, control SI = 100%. As to the method: Experiments were conducted on 69 fragments of brain subcortical structures of 10-11-days' old chicken embryos. The nutrient medium for cultivation consisted of 35% Eagle's solution, 25% calf foetal serum, 35% Hanks' solution, 5% chicken embryonic extract. The medium was also added glucose (0.6%), insulin (0.5 unit/ml), penicillin (100 unit/ml), glutamine (2 mM). Fragments of the brain subcortical structures were placed in this medium and cultivated in Petri's dishes in a thermostat at 36.7° C. for 48 hours. The experimental medium was added Ala-Glu-Asp-Gly tetrapeptide and Epithalamin in the concentrations of 2, 10, 20, 50, 100, 200, 400 ng/ml. Square index (SI) considered the criterion of biological activity. It was counted as the ratio between the total explant square including the growth zone and the initial square of the subcortical structure fragment Significance of differences between the average values of SI was assessed by Student's t-criterion. ST values were expressed percent, the control SI value being taken for 100%.
The growth zone of the control explants of the brain, subcortical structures included short neurites, migrating glia and fibroblast-resembling cells.
Immediate influence of the substances upon the fragments of the brain subcortical structures was investigated in the following experimental series.

Another data set has as its system cerebral cortex explants. As to the kind of experiment: Growth of cerebral cortex explants (square index, organotypic culture). The data set is classed as cell-based, chicken embryos. As to the method:
The experiments are conducted on 73 fragments of cerebral cortex explants of 10-11-days' chicken embryos. The nutrient medium for cultivation consisted of 35% Eagle's solution, 25% calf foetal serum, 35% Hanks' solution, 5% chicken embryonic extract. The medium was also added glucose (0.6%), insulin (0.5 unit/ml), penicillin (100 unit/ml), glutamine (2 mM). Fragments of the cerebral cortex were placed in this medium and cultivated in Petri's dishes in a thermostat at 36.7° C. for 48 hours. The experimental medium is was added Ala-Glu-Asp-Pro tetrapeptide and Cortexin in the concentrations of 2, 10, 20, 50, 100, 200, 400 ng/ml. Square index (SI) was considered the criterion of biological activity. It was counted as the ratio between the total explant square including the growth zone and the initial square of the cerebral cortex fragment and. Significance of differences between the average values of SI was assessed by Student's t-criterion. SI values were expressed per cent, the control SI value being taken for 100%.
The growth zone of the control cerebral cortex explants included short neurites, migrating glia and fibroblast cells.
Immediate influence of the substances upon the cerebral cortex fragments was investigated in the following experimental series.

Data set [2] deals with monolayer hepatocyte culture. As to the kind of experiment: Intensity of protein synthesis ([3H]-leucin inclusion) in monolayer hepatocyte culture. The note with it: 0.005 μg/ml, 4 hours. Type of data set: cell-based, rats. As to the method:
Intensity of the protein synthesis was investigated in the hepatocyte culture of rats aged 4, 8 and 18 months.
To isolate hepatocytes, rat liver was perfused with calcium-free Hanks' solution added 0.5 mM of EDTA and then 0.05% collagenase solution in Medium 199. The cellular suspension was filtered out and centrifuged. The hepatocyte suspension in the concentration of 5×10^5 was introduced into Petri's dishes, their bottoms surfaced with collagen-covered glass. Applied Medium 199 contained no bovine serum but was added 0.2 mg/ml of albumen and 5 μg/ml of insulin. The dishes with glass-covered bottoms were placed in a thermostat at 37° C., aerated and added CO2. […]
Protein synthesis was assessed by [^3H]-leucin inclusion regarding the standard errors for a free marked leucin pull in the same culture. […] Radioactivity of the pull of free intracellular leucin and cellular proteins (in hyamine fraction) after adding the corresponding scintillators was measured on a radioactivity counter SL-30.
The intensity of protein synthesis was calculated by the formula Icorr=Ii×Pav/Pi(cpm), where
Icorr—inclusion of leucin regarding the standard errors of free leucin pull, Ii—measured radioactivity of the proteins for i-culture, Pav—mean radioactivity of proteins and pull for the cultures studied in this experiment, Pi—total radioactivity of proteins and pull of the same culture. […]

In the next data set the test system is liver explants. As to the kind of experiment: Growth of liver explants (square index, organotypic culture). Type of data set: cell-based, chicken embryos. The note with it: 20 ng/ml. How it is done: The experiments were carried out in 53 liver fragments of 10-11 days old chicken embryos. Nutrient medium for the explant cultivation consisted of 35% of Eagle's solution, 25% of foetal calf serum, 35% of Hank's solution and 5% of chicken embryonic extract. The mixture is added glucose (0.6%), insulin (0.5 unit/ml), penicillin (100 unit/m) and glutamine (2 mM). […] Lys-Glu-Asp-Ala tetrapeptide was added to the experimental medium in the concentrations of 2, 10, 20, 50, 100, 200 and 400 ng/mL Square index (SI) was taken for a biological activity criterion and calculated as a correlation of the total explant square including the growth zone to the initial square of a liver fragment. The SI values were expressed percent, the control SI value taken for 100%.

`C[C@H](N)C(=O)N[C@@H](CCC(=O)O)C(=O)N[C@@H](CC(=O)O)C(=O)NCC(=O)O` [Ala-Glu-Asp-Gly tetrapeptide, alanyl-glutamyl-aspartyl-glycine] (H-AEDG-OH): the “SI of the experimental explants higher than that of the control fragments” value in data set [1] came to 24%.

As to `C[C@H](N)C(=O)N[C@@H](CCC(=O)O)C(=O)N[C@@H](CC(=O)O)C(=O)N1CCC[C@H]1C(=O)O` [Ala-Glu-Asp-Pro tetrapeptide, L-alanyl-L-glutamyl-L-aspartyl-L-proline] (H-AEDP-OH), in the data set on cerebral cortex explants (20 ng/ml, control SI = 100%), the “SI of the experimental explants higher than that of the control cerebral cortex fragments” value is on record as 40±7%. Besides, in the data set with cerebral cortex explants (tested 2-400 ng/ml), the “concentration stimulating the fragments of cultivated cerebral cortex (threshold of effective concentrations)” value amounted to 20 ng/mL.

Take `C[C@H](NC(=O)[C@H](CC(=O)O)NC(=O)[C@H](CCC(=O)O)NC(=O)[C@@H](N)CCCCN)C(=O)O` [Lys-Glu-Asp-Ala tetrapeptide, lysyl-glutamyl-aspartyl-alanine] (H-KEDA-OH): the “amplitude of synthesis oscillations” value in data set [2] (hepatocytes of older rats) is on record as “increased considerably”. Besides, in data set [2] (hepatocytes of rats aged 4, 8 and 18 months, strongest effect in cells of older animals), the “level of protein synthesis in hepatocytes” value was “raised the level of protein synthesis”. Besides, the “effect on liver explants by longer terms of cultivation” value with liver explants (cultivation up to 7 days) is “analogous stimulating effect”. For the same compound, the “increase in the explant SI as compared to the control value” in the data set with liver explants (third day of the cultivation, control SI = 100%) came to 24%.
